According to ChEMBL document CHEMBL4507319 (2021):

How the values were obtained:
Conditions in all cases: Compound concentration 1000.0 nM
[1] = target: Rho-associated protein kinase 2 (Homo sapiens) (UniProt O75116)
[2] = target: Eukaryotic translation initiation factor 2-alpha kinase 1 (Homo sapiens) (UniProt Q9BQI3)
[3] = target: T1, Discoidin domain-containing receptor 2 (Homo sapiens) (UniProt Q16832)
T1 sequence (whole entry): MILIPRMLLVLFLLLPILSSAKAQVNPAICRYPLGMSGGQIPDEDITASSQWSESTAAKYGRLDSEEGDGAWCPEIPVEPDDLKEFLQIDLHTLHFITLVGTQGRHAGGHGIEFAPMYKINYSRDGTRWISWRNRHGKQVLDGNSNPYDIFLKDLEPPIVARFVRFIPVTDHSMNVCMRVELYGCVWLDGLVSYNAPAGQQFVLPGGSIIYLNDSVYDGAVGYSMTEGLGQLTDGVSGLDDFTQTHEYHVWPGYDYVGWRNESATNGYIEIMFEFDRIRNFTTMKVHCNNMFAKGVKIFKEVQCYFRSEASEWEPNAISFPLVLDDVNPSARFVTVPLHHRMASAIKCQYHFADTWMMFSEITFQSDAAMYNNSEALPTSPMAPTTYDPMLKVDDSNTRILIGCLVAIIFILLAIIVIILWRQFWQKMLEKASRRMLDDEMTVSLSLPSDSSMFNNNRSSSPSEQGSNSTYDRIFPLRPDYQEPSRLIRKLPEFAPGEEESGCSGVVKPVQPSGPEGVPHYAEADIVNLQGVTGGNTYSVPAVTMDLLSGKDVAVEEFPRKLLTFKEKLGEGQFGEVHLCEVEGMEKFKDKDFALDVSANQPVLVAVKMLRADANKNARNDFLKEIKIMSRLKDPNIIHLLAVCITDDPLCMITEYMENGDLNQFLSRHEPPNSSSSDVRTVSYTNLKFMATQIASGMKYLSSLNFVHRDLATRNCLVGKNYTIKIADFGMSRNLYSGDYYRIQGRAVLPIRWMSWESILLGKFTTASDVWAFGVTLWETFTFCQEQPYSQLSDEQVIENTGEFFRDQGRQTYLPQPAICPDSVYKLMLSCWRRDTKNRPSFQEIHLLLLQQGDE

[4] = target: T2, NUAK family SNF1-like kinase 2 (Homo sapiens) (UniProt Q9H093)
T2 sequence (whole entry): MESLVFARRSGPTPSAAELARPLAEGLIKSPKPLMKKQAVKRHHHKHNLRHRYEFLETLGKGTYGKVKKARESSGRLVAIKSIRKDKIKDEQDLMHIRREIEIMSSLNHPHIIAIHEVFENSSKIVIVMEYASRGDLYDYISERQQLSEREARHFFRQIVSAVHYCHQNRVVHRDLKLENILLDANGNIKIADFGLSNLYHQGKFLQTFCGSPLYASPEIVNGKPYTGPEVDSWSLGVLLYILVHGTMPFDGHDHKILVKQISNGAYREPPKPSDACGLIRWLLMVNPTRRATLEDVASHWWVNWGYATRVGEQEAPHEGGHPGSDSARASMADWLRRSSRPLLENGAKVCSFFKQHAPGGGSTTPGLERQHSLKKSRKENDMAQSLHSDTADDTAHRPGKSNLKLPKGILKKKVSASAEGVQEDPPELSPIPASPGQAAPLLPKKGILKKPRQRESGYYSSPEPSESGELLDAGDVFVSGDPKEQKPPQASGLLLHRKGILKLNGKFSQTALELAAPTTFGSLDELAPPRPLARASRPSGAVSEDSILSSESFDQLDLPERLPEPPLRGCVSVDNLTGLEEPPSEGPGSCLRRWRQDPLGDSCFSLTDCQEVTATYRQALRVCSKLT

[5] = target: Ribosomal protein S6 kinase alpha-4 (Homo sapiens) (UniProt O75676)
Sequence of Ribosomal protein S6 kinase alpha-4 (Homo sapiens) (O75676 whole entry, looked up): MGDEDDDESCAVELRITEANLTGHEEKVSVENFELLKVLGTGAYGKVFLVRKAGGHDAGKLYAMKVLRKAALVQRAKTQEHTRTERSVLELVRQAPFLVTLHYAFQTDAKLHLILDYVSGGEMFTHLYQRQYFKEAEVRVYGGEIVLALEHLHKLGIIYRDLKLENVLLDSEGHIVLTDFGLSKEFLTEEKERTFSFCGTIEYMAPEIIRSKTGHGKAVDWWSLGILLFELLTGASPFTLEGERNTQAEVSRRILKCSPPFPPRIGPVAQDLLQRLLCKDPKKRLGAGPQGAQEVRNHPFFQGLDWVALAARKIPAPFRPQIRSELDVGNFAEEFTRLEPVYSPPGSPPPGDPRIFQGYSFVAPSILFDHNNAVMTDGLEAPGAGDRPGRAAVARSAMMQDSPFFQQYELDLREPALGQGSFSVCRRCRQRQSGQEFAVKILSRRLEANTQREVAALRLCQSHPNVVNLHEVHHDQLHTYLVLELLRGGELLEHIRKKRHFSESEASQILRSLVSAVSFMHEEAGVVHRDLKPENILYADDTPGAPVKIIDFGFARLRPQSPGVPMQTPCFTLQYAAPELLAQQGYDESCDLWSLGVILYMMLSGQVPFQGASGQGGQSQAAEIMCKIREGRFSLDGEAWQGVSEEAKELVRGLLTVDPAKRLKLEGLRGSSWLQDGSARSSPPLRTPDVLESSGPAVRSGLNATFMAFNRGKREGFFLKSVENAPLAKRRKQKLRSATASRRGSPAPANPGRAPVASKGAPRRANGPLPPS

[6] = target: Serine/threonine-protein kinase N1 (Homo sapiens) (UniProt Q16512)
Sequence of Serine/threonine-protein kinase N1 (Homo sapiens) (Q16512 2-942 limits assumed): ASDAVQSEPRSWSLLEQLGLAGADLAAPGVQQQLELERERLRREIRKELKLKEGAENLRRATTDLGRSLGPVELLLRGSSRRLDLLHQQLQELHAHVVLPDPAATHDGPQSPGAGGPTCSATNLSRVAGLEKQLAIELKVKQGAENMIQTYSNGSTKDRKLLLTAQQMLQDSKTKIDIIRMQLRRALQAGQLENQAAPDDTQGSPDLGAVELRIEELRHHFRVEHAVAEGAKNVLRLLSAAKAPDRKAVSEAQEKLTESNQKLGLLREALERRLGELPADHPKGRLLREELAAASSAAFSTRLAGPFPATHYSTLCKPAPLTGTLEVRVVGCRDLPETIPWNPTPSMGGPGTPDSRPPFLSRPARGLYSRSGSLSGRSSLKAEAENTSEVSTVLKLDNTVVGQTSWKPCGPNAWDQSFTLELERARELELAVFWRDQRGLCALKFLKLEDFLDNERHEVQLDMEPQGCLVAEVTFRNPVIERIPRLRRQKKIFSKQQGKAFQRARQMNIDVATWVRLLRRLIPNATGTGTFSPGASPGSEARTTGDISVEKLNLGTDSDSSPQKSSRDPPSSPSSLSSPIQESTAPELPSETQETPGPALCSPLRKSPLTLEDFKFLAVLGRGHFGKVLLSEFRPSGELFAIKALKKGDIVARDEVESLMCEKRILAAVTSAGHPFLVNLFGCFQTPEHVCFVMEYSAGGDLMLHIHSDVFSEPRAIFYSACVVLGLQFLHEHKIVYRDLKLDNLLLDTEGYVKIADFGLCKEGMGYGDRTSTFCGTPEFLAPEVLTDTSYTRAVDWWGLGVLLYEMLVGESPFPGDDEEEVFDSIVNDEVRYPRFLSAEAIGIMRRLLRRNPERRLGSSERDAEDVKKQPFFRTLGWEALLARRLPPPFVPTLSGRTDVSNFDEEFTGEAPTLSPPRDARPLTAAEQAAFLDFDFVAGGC

[7] = target: Phosphatidylinositol 4-phosphate 5-kinase type-1 alpha (Homo sapiens) (UniProt Q99755)
[8] = system: Tyrosine-protein kinase ABL1 (Homo sapiens), P00519 [F317L]
Sequence of Tyrosine-protein kinase ABL1 (Homo sapiens), P00519 [F317L] (P00519 whole entry F317L): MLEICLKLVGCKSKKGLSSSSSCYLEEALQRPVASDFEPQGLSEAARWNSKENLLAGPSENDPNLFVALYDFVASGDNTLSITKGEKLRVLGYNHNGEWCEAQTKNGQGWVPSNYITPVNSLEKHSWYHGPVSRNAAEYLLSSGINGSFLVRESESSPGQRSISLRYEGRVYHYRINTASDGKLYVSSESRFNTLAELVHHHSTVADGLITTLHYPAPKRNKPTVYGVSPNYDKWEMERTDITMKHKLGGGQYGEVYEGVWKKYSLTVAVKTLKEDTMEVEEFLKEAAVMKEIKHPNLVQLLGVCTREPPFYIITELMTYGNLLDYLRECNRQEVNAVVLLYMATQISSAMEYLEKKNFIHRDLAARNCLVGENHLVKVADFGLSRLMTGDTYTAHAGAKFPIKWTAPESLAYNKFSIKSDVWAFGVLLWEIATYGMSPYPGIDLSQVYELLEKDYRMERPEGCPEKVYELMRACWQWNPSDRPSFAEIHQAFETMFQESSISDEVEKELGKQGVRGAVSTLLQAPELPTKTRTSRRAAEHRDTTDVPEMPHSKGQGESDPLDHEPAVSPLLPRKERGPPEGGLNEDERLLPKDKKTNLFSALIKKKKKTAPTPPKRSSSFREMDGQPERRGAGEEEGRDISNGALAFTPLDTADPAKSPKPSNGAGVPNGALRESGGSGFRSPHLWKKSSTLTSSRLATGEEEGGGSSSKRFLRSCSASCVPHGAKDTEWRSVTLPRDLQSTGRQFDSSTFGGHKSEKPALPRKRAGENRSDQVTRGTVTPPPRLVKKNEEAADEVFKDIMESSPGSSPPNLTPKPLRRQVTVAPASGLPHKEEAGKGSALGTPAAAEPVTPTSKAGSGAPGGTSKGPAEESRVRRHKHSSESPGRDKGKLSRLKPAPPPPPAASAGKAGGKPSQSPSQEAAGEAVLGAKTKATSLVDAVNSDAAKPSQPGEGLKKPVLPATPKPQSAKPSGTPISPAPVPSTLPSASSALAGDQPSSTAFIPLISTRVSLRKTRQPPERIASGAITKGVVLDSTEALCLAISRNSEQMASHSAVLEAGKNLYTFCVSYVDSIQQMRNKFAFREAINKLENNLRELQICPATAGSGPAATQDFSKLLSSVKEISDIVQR

[9] = target: Dual specificity mitogen-activated protein kinase kinase 5 (Homo sapiens) (UniProt Q13163)
[10] = target: AP2-associated protein kinase 1 (Homo sapiens) (UniProt Q2M2I8)
Sequence of AP2-associated protein kinase 1 (Homo sapiens) (Q2M2I8 whole entry, looked up): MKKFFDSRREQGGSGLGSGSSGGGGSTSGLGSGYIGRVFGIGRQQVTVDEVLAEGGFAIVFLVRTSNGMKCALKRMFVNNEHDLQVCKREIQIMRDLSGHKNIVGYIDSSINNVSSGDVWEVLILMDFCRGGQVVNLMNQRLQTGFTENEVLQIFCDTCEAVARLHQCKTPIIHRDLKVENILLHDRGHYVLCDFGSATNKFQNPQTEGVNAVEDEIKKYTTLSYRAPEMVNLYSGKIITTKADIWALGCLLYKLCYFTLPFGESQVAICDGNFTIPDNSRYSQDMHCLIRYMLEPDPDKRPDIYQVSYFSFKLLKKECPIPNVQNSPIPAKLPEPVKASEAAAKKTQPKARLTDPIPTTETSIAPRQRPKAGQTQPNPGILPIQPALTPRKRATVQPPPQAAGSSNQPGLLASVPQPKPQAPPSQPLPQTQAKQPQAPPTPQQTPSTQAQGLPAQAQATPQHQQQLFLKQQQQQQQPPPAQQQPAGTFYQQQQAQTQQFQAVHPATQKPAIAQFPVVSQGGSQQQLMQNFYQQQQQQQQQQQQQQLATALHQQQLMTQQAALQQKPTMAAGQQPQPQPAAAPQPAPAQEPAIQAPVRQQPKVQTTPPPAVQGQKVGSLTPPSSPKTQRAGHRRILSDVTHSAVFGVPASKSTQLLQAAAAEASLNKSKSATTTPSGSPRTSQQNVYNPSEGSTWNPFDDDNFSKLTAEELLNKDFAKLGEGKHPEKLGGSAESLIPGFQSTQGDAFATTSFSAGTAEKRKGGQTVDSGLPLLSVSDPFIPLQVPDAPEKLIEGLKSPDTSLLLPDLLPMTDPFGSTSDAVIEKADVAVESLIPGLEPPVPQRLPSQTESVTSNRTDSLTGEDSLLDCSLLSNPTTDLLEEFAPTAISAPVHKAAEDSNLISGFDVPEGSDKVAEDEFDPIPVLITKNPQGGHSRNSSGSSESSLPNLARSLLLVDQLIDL

[11] = target: Tyrosine-protein kinase Lck (Homo sapiens) (UniProt P06239)
Sequence of Tyrosine-protein kinase Lck (Homo sapiens) (P06239 2-509 limits assumed): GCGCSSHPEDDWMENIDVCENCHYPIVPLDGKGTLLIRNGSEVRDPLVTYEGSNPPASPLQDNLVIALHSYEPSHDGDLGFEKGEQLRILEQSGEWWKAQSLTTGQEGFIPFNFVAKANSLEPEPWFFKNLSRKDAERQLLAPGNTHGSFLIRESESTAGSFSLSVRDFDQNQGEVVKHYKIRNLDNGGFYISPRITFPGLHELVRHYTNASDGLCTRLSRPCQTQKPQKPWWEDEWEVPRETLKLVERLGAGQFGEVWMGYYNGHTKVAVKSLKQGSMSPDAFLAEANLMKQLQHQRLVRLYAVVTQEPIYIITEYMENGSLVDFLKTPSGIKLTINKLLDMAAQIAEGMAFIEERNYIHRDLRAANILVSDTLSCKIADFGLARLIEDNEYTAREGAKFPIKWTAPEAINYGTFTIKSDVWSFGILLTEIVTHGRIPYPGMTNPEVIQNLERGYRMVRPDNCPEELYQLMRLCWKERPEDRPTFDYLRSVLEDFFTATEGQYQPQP

[12] = target: Ephrin type-A receptor 4 (Homo sapiens) (UniProt P54764)
[13] = target: T3, Serine/threonine-protein kinase 4 (Homo sapiens) (UniProt Q13043)
T3 sequence (whole entry): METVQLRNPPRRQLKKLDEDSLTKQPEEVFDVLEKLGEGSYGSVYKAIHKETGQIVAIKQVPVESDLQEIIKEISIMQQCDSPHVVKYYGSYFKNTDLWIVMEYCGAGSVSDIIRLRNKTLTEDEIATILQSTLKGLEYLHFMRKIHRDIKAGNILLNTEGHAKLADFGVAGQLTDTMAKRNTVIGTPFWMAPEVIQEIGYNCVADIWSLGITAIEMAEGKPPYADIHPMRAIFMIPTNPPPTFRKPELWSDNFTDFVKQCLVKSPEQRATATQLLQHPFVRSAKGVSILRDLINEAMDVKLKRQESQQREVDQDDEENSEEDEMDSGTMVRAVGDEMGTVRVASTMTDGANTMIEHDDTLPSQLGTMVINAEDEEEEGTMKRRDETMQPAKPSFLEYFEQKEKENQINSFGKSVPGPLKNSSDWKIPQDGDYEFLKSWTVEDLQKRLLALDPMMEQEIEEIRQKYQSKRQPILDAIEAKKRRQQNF

Sequence of Eukaryotic translation initiation factor 2-alpha kinase 1 (Homo sapiens) (Q9BQI3 whole entry, the tested form may be a part): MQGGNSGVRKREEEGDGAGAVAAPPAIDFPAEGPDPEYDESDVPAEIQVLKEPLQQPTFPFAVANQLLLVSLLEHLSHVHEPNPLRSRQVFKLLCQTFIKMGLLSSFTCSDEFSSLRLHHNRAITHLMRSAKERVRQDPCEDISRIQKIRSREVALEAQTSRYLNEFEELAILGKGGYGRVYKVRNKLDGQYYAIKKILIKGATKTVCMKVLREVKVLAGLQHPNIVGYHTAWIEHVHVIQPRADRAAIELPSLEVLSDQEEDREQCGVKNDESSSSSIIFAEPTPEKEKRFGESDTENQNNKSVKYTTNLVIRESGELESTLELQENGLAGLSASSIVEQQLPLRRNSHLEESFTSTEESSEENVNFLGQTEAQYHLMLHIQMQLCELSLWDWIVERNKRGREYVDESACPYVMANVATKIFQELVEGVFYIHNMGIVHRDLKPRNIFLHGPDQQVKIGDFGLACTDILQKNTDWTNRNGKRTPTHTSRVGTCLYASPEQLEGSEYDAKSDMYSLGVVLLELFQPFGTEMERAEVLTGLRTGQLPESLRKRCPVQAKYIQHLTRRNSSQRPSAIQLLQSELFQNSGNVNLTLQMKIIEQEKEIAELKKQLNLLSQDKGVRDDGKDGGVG

Structure (SMILES): CC1=C(C#N)C(c2ccc3c(c2)c(NC(=O)c2ccccc2C)nn3C)C(C#N)=C(C)N1 [BAY-974]
- residual activity [1]: 93%
- residual activity [2]: 100%
- residual activity [3]: 86%
- residual activity [4]: 81%
- residual activity [5]: 89%
- residual activity [6]: 78%
- residual activity [7]: 100%
- residual activity [8]: 91%
- residual activity [9]: 79%
- residual activity [10]: 90%
- residual activity [11]: 81%
- residual activity [12]: 93%
- residual activity [13]: 80%

Structure (SMILES): CCc1ccccc1C(=O)Nc1n[nH]c2c(C)c(F)c(C3C(C#N)=C(C)N(C)C(C)=C3C#N)cc12 [BAY-3827]
- residual activity [1]: 100%
- residual activity [2]: 100%
- residual activity [3]: 100%
- residual activity [4]: 40%
- residual activity [5]: 100%
- residual activity [6]: 100%
- residual activity [7]: 100%
- residual activity [8]: 89%
- residual activity [9]: 100%
- residual activity [10]: 81%
- residual activity [11]: 100%
- residual activity [12]: 100%
- residual activity [13]: 98%
